This is an account of results in a melting point compilation (Tetko et al.).

For the molecule `CC(C)(C1CCC(OCC(CN2C(C)(C)CC3(CC2(C)C)OCCO3)OC(=O)c2ccccc2)CC1)C1CCC(OCC(CN2C(C)(C)CC3(CC2(C)C)OCCO3)OC(=O)c2ccccc2)CC1` (stereo unspecified), the melting point lay in the range of 77 to 79 °C. Turning to `CC1(C)CC(O)(C#N)CC(C)(C)N1`, the melting point fell in the range of 129 to 132 °C. The molecule `CC(=O)OCC=C(C)CCC=C(C)CCC=C(C)CCC=C(C)CCC=C(C)CCC=C(C)CCC=C(C)CCC=C(C)CCC=C(C)CCC=C(C)CCC=C(C)C` gave a melting point of 36 to 37 °C. With `Nc1nc2sc(Cc3ccccc3)cc2c(=O)[nH]1`, the melting point lay within 294 to 296 °C. `CN(C)C(=O)c1cc2c(nc(C3CC3)n2C)c(O)c1CCC(O)c1ccccc1` (stereo unspecified): the melting point was in the range of 92 to 94 °C. On to `CC(=O)OCC(COC(C)=O)NC(=O)c1c(I)c(C(=O)NC(COC(C)=O)COC(C)=O)c(I)c(N2C(=O)OCC2CO)c1I` (stereo unspecified), for which the melting point fell in the range of 235 to 240 °C. `CC(C)n1c(CC[C@@H](O)C[C@@H](O)CC(=O)O)c(-c2ccc(F)cc2)c(-c2ccccc2)c1C(=O)NCc1cccc(C(=O)O)c1` showed a melting point of 140 to 141 °C.

Turning to `CCCCCCCCCCCCCCCCCCN(CCCCCCCCCCCCCCCCCC)CCCN(CCOC(=O)Nc1ccccc1)CCOC(=O)Nc1ccccc1`, the melting point was in the range of 54 to 56 °C. `O=C(NCCCN1CCOCC1)c1ccc(-c2ccc(Br)cc2)o1` returned a melting point of 83 to 100 °C. For `CC(CC(CC(Sc1cc(C(C)(C)C)c(O)c(C(C)(C)C)c1)Sc1cc(C(C)(C)C)c(O)c(C(C)(C)C)c1)Sc1cc(C(C)(C)C)c(O)c(C(C)(C)C)c1)Sc1cc(C(C)(C)C)c(O)c(C(C)(C)C)c1` (stereo unspecified), the melting point fell in the range of 160 to 162 °C.

Take `CC(=O)ON=C(N)c1ccc(CN(CCCCNC(=O)OC(C)(C)C)C(=O)CNC(=O)CN(CCc2ccccc2)S(=O)(=O)c2ccc(Cl)c(C)c2Cl)cc1`: the melting point came out at 100 °C. As for `CC(COC(=O)CCSCCSCCC(=O)OCC(C)(Cc1cc(C(C)(C)C)c(O)c(C(C)(C)C)c1)Cc1cc(C(C)(C)C)c(O)c(C(C)(C)C)c1)(Cc1cc(C(C)(C)C)c(O)c(C(C)(C)C)c1)Cc1cc(C(C)(C)C)c(O)c(C(C)(C)C)c1`, the melting point was 156 to 161 °C. `COc1cc(OC)c(/C=C/C(c2ccc(OC)c(NC(=O)CN3CCN(C)CC3)c2)S(=O)(=O)C(/C=C/c2c(OC)cc(OC)cc2OC)c2ccc(OC)c(NC(=O)CN3CCN(C)CC3)c2)c(OC)c1` (stereo unspecified) came in with a melting point of 176 to 178 °C.

`CC(C)(C)c1cc(-c2cc(C(C)(C)C)cc(C(C)(C)C)c2Op2oc3ccccc3c3ccccc3o2)c(Op2oc3ccccc3c3ccccc3o2)c(C(C)(C)C)c1` yielded a melting point of 80 °C. As for `Brc1cc(Br)c(Oc2nc(Oc3c(Br)cc(Br)cc3Br)nc(Oc3c(Br)cc(Br)cc3Br)n2)c(Br)c1`, the figure is 215 to 218 °C. As for `C=CCN(CC=C)c1nc(NC(C)(C)CC(C)(C)C)nc(N(CCCCCCN(c2nc(NC(C)(C)CC(C)(C)C)nc(N(CC=C)CC=C)n2)C2CC(C)(C)NC(C)(C)C2)C2CC(C)(C)NC(C)(C)C2)n1`, the melting point is 113 to 115 °C. As to `CC(=O)OCC(CNC(=O)c1c(I)c(C(=O)NCC(COC(C)=O)OC(C)=O)c(I)c(N2CCCC(Br)C2=O)c1I)OC(C)=O` (stereo unspecified), the melting point lay within 232 to 235 °C. As for `O=C(O)CCCOc1c(Cl)cccc1Cl`, the figure is 66 to 67 °C; as for `O=S(=O)(C(/C=C/c1c(F)c(F)c(F)c(F)c1F)c1c(F)c(F)c(F)c(F)c1F)C(/C=C/c1c(F)c(F)c(F)c(F)c1F)c1c(F)c(F)c(F)c(F)c1F` (stereo unspecified), 137 to 139 °C.

Turning to `CCCCCCCCCCCCCCCCCCSc1nc(SCCCCCCCCCCCCCCCCCC)nc(-c2cc(C(C)(C)C)c(O)c(C(C)(C)C)c2)n1`, the melting point fell in the range of 87 to 89 °C. The molecule `O=C(O)Cc1cccc(-c2cc(C(=O)CCCCC(=O)c3ccc(OC4OC(CO)C(O)C(O)C4O)c(-c4cccc(CC(=O)O)c4)c3)ccc2OC2OC(CO)C(O)C(O)C2O)c1` (stereo unspecified) showed a melting point of 127 to 129 °C. As to `CCC(C)(C)c1ccc(OCC(=O)Nc2cccc(C(=O)Nc3[nH]n(-c4c(Cl)cc(Cl)cc4Cl)c(=O)c3-n3nnn(-c4ccccc4)c3=S)c2)c(C(C)(C)CC)c1`, the melting point lay in the range of 169 to 171 °C. On to `COC(=O)c1cc(C(C)(C)C)c(OP2OP(Oc3c(C(C)(C)C)cc(C(=O)OC)cc3C(C)(C)C)OP(Oc3c(C(C)(C)C)cc(C(=O)OC)cc3C(C)(C)C)O2)c(C(C)(C)C)c1` (stereo unspecified), for which the melting point fell in the range of 185 to 200 °C. Consider `COc1ccc(N2C(=O)C3Cc4[nH]cnc4CN3C2=O)cc1` (stereo unspecified), for which the melting point is 142 to 148 °C. For `O=S(=O)(CCCCCOc1ccc(C2=C(c3ccc(OC4CCCCO4)cc3)CCCc3cc(OC4CCCCO4)ccc32)cc1)CCCC(F)(F)C(F)(F)F` (stereo unspecified) the value was 108 to 110 °C; for `C=C(C)C(=O)OCCCCCCCCCCCOc1ccc(-c2nc(-c3ccc(OCCCCCCCCCCCOC(=O)C(=C)C)cc3O)nc(-c3ccc(OCCCCCCCCCCCOC(=O)C(=C)C)cc3O)n2)c(O)c1`, 60.2 °C; for `CC12CC3CC(C)(C1)CC(N)(C3)C2`, 153 °C. On to `CC(C)(C)c1cc(SC(CCCC(Sc2cc(C(C)(C)C)c(O)c(C(C)(C)C)c2)Sc2cc(C(C)(C)C)c(O)c(C(C)(C)C)c2)Sc2cc(C(C)(C)C)c(O)c(C(C)(C)C)c2)cc(C(C)(C)C)c1O`, for which the melting point was 148 to 153 °C.

`CCOC(=O)C1=C(COCC(O)C(O)COCC2=C(C(=O)OCC)C(c3ccccc3Cl)C(C(=O)OC)=C(C)N2)NC(C)=C(C(=O)OC)C1c1ccccc1Cl` (stereo unspecified) returned a melting point of 76.5 to 78 °C. On to `CC(C)[C@H](NC(=O)N(C)Cc1cscn1)C(=O)N[C@@H](Cc1ccccc1)[C@@H](O)[C@H](O)[C@H](Cc1ccccc1)NC(=O)[C@@H](NC(=O)N(C)Cc1cscn1)C(C)C`, for which the melting point was 92 to 94 °C. `C=CCOC1C(NC(C)=O)C(OCc2ccccc2)OC(COCc2ccccc2)C1OC1(N)OC(COCc2ccccc2)C(OCc2ccccc2)C(OCc2ccccc2)C1C(=O)OCC(Cl)(Cl)Cl` (stereo unspecified) came in with a melting point of 186 to 188 °C. With `N=S(=O)(c1ccccc1)c1cccnc1` (stereo unspecified), the melting point was 109 °C. `CCCc1nn(C)c(C(=O)O)c1[N+](=O)[O-]` gave a melting point of 122 to 126 °C. Regarding `[C-]#[N+]CS(=O)c1ccccn1` (stereo unspecified), the melting point lay within 91 to 93 °C. For `O=C(Nc1ccc(N2CCNCC2)cc1)c1ccccc1-c1ccccc1`, the melting point came to 176 °C.

`COc1c(Cl)nc(-c2ccc(Cl)c(OC)c2F)nc1Cl`: the melting point lay within 137 to 138 °C. For `CCCCCCCCCCCCS(=O)(=O)c1c(S(=O)(=O)CCCCCCCCCCCC)c(S(=O)(=O)CCCCCCCCCCCC)c(S(=O)(=O)CCCCCCCCCCCC)c(S(=O)(=O)CCCCCCCCCCCC)c1S(=O)(=O)CCCCCCCCCCCC`, the melting point came to 60 °C. For `O=P(Oc1c(Br)cc(Br)cc1Br)(Oc1c(Br)cc(Br)cc1Br)Oc1c(Br)cc(Br)cc1Br` the value was 223 to 226 °C. Molecule `C=CCOC1OC(CO)C(O)C(OC(=O)CC(CCCCCCCCCCC)OC(=O)CCCCCCCCCCCCC)C1NC(=O)OCC(Cl)(Cl)Cl` (stereo unspecified) registered a melting point of 68 to 70 °C. `CC(=O)Nc1cc(N2CCN(Cc3ccccc3)CC2)ccc1OCC(=O)N[C@@H](CC(N)=O)C(=O)N[C@@H](Cc1ccccc1)[C@H](O)C(=O)N1CCC[C@H]1C(=O)NC(C)(C)C`: the melting point is 119 to 127 °C.

Turning to `O=P1(Oc2c(Br)c(Br)c(Br)c(Br)c2Br)OCC2(CO1)COP(=O)(Oc1c(Br)c(Br)c(Br)c(Br)c1Br)OC2` (stereo unspecified), the melting point was 324 to 326 °C. For `CCOC(=O)OC1=C(c2cc(C)ccc2C)C(=O)NC1CC1CCS(=O)(=NC(=O)C(F)(F)F)CC1` (stereo unspecified) the value was 87 to 89 °C. Consider `CCC(Br)=C1NC(=O)N(C(C(=O)Nc2cc(NC(=O)C(CC)Oc3ccc(C(C)(C)CC)cc3C(C)(C)CC)ccc2Cl)C(=O)c2ccc(OC)cc2)C1=O` (stereo unspecified), for which the melting point fell in the range of 112 to 114 °C. Consider `Cc1cc(C)c2cccc(OCc3c(Cl)ccc(S(=O)(=O)N4CCC[C@H]4C(=O)NC4CCN(C(=O)CCN(C=NC(=O)OC(C)(C)C)NC(=O)OC(C)(C)C)CC4)c3Cl)c2n1`, for which the melting point fell in the range of 115 to 117 °C. Turning to `CC(C)Cn1c(C(O)c2ccc(Cl)cc2)nc2c(N)nc3ccccc3c21` (stereo unspecified), the melting point is 140 to 145 °C.

As to `COc1ccc(C(c2ccccc2)C(C)(C(=O)C(C)(C(c2ccccc2)c2ccc(OC)c(OC)c2)N2C(=O)c3ccccc3C2=O)N2C(=O)c3ccccc3C2=O)cc1OC` (stereo unspecified), the melting point is 159 to 161 °C. In turn, `CCC1(CC)c2cc(-c3ccc(N(c4ccccc4)c4ccc(-c5ccc6c(c5)C(CC)(CC)c5cc(-c7nc8ccccc8s7)ccc5-6)cc4)cc3)ccc2-c2ccc(-c3nc4ccccc4s3)cc21` returned a melting point of 257 to 262 °C. `O=S(c1cc(C(F)(F)F)[nH]c1-c1ccc(Cl)cc1)C(F)(F)F` (stereo unspecified) registered a melting point of 198 to 200 °C. `COc1cc2c3c(ccc4c5ccc6c7c(cc(OC)c(c1c34)c75)-c1ccccc1C6C#C[Si](C(C)C)(C(C)C)C(C)C)C(C#C[Si](C(C)C)(C(C)C)C(C)C)c1ccccc1-2` (stereo unspecified) yielded a melting point of 295 to 298 °C. With `CN(C)CCCN=S(=O)(c1ccccc1)c1cccs1` (stereo unspecified), the melting point was determined as 125 °C. As for `Cc1cc(F)c(-n2nc(C(F)(F)F)nc2NC(=O)C(F)(F)F)cc1C(SC(c1cc(-n2nc(C(F)(F)F)nc2NC(=O)C(F)(F)F)c(F)cc1C)C(F)(F)F)C(F)(F)F` (stereo unspecified), the figure is 122 to 125 °C. Take `[C-]#[N+]C(=CC=C1C=C(c2ccccc2)C=C(c2ccccc2)O1)C(=O)OCC`: the melting point was in the range of 150 to 152 °C.

Consider `O=C(OCc1ccc(OCCCCCCCCCCC2c3c(c4ccccc4c4ccccc34)-c3c2c2ccccc2c2ccccc32)cc1)c1cn(C2CC2)c2cc(F)c(F)cc2c1=O`, for which the melting point is 71 to 73 °C. `CC(=O)NC1C(OCc2ccccc2)OC(COCc2ccccc2)C(OC2OC(COCc3ccccc3)C(OCc3ccccc3)C(OCc3ccccc3)C2NC(C)=O)C1O` (stereo unspecified) returned a melting point of 220 to 222 °C. In turn, `CC(C)(C)c1cc(CCC(=O)OC2C(C)(C)C(OC(=O)CCc3cc(C(C)(C)C)c(O)c(C(C)(C)C)c3)C(C)(C)C(OC(=O)CCc3cc(C(C)(C)C)c(O)c(C(C)(C)C)c3)C2(C)C)cc(C(C)(C)C)c1O` (stereo unspecified) had a melting point of 105 to 115 °C. `CCCCCCCCCCCCCCCCCCCCCCCCCCCCCCCCCCCCCCCCCCCC` returned a melting point of 87.5 to 88 °C.
